Measured values: ChEMBL document CHEMBL3797140, “Acridin-3,6-dialkyldithiourea hydrochlorides as new photosensitizers for photodynamic therapy of mouse leukemia cells” (Bioorg Med Chem, 2016)

Assays:
[1] = Phototoxicity against mouse NIH/3T3 cells assessed as cell viability preincubated for 1 hr followed by 1.05 J/cm2 UV-A irradiation measured after 48 hrs by MTT assay; format: cell-based; conditions: NIH3T3, light or radiation study
[2] = Dark toxicity against mouse L1210 cells assessed as cell viability after 48 hrs by MTT assay; format: cell-based
L1210 = experiment: Phototoxicity against mouse L1210 cells assessed as cell viability preincubated for 1 hr followed by 1.05 J/cm2 UV-A irradiation measured after 48 hrs by MTT assay; format: functional, cell-based; conditions: L1210, light or radiation study
[3] = Dark toxicity against mouse NIH/3T3 cells assessed as cell viability after 48 hrs by MTT assay; format: cell-based, NIH3T3

Structure (SMILES): CCCCCNC(=S)Nc1ccc2cc3ccc(NC(=S)NCCCCC)cc3nc2c1
- IC50 [1]: 3.7 µM
- IC50 at 48 h [2]: 9.2 µM
- IC50 (L1210): 0.6 µM
- IC50 at 48 h [3]: 37.5 µM
